Results on 10 molecules are retold here after article PMC11110763, “Carltonine-derived compounds for targeted butyrylcholinesterase inhibition” (RSC Medicinal Chemistry, 2024).

Data set [1] in a line: Cytotoxicity MTT assay, human neuroblastoma cell line. The settings on record: SH-SY5Y neuroblastoma cells.
The target in data set [2] is T1, recombinant BChE (hBChE, E.C. 3.1.1.8) (Homo sapiens, UniProt P06276).
T1 construct: purchased Sigma-Aldrich, Prague, Czech Republic
The data set is described as follows: biochemical. It is filed as biochemical. The settings on record: for IC50: mean ± SEM of three independent measurements, each in triplicate; for inhibition at 10 µM: tested at 10 μM compound concentration, read-out: % inhibition of hBChE ± SEM.
Procedure: The activities of hAChE and hBChE were determined using a modified Ellman's method, as described in ref. [56] and [62] against recombinant AChE (hAChE, E.C. 3.1.1.7) and recombinant BChE (hBChE, E.C. 3.1.1.8), both of which were purchased from Sigma-Aldrich, Prague, Czech Republic. […] The other compounds used, including the phosphate buffer solution (PBS, pH = 7.4), 5,5′-dithio-bis(2-nitrobenzoic) acid (Ellman's reagent, DTNB), acetylthiocholine (ATChI), and butyrylthiocholine (BTChI), were commercially available and purchased from Sigma-Aldrich in Prague, Czech Republic. In brief, the corresponding enzyme (8.3 μL), 5 mM DTNB (283 μL), and the sample dilution in dimethyl sulfoxide (DMSO) at various concentrations (8.3 μL) were added to 96-well microplates (BRAND GMBH + CO KG, Wertheim, Germany) and pre-incubated for 5 minutes in the assay medium. The reaction was initiated by adding 10 mM substrate (ATChI or BTChI, 33.3 μL). […] Each measurement was repeated in triplicate. The percentage of inhibition was calculated using the following formula: [drawing 8] where ΔABl represents the increase in absorbance of the blank sample, and ΔASa represents the increase in absorbance of the measured sample. […] Microsoft Excel (Redmond, WA, USA) and GraphPad Prism version 7 for Windows (GraphPad Software, San Diego, CA, USA) were used for the statistical data evaluation.

Data set [3] in a line: PAMPA assay (BBB penetration). The settings on record: for Pe ± SEM: PAMPA, PBS pH 7.4, n = 3; for BBB penetration estimation CNS (+/−): class from PAMPA Pe.
Source text: Furthermore, we experimentally determined the ability of 12 highlighted hBChE inhibitors to pass through the BBB using a parallel artificial membrane permeation assay (PAMPA) as described by Di et al.[65] […] The methodology was validated on a set of compounds (positive and negative controls) recognized for their activity in the CNS (Table 3).
In this study, it has been used as a non-cell-based in vitro assay carried out in a coated 96-well membrane filter. The filter membrane of the donor plate was coated with PBL (polar brain lipid, Avanti, USA) in dodecane (4 μl of 20 mg ml^−1 PBL in dodecane) and the acceptor well was filled with 300 μl of PBS (pH 7.4; VA). The tested compounds were dissolved first in DMSO and subsequently diluted with PBS (pH 7.4) to final concentrations of 50–100 μM in the donor wells. […] About 300 μL of the donor solution was added to the donor wells (VD) and the donor filter plate was carefully put on the acceptor plate so that the coated membrane was “in touch” with both the donor solution and acceptor buffer. In principle, the test compound diffused from the donor well through the lipid membrane (area = 0.28 cm^2) to the acceptor well. The concentration of the drug in both the donor and acceptor wells was assessed after 3, 4, 5, and 6 h of incubation in quadruplicate using the UV plate reader Spark (Tecan Group Ltd, Switzerland) at the maximum absorption wavelength of each compound. Besides that, a solution of theoretical compound concentration, simulating the equilibrium state established if the membrane were ideally permeable, was prepared and assessed as well. The concentration of the compounds in the donor and acceptor wells and equilibrium concentration were calculated from the standard curve and expressed as the permeability (Pe) according the equation: [drawing 10] where [drawing 11]
Data set [4] has as its system HepG2 cells. The settings on record: human, 24 h.
Procedure: (§1) For passaging, the cells were treated with trypsin/EDTA (Sigma-Aldrich, St. Louis, USA) at 37 °C and then harvested. For cytotoxicity evaluation, the cells treated with the studied substances were used, while untreated HepG2 cells served as the control group. The cells were seeded in a 96-well plate at a density of 5 × 10^4 cells per well and incubated for 24 hours. All tested compounds were dissolved in DMSO to prepare 10 mM stock solutions and subsequently diluted to the desired concentration just before the cell treatment (the highest DMSO concentration used was 0.5% v/v). Positive and negative controls were included, as well, and the activity of all the samples was determined in triplicate. Plates were incubated for 24 h in a humidified atmosphere containing 5% CO2 at 37 °C. […] Afterwards, the formazan crystals were dissolved in DMSO, and the absorbance of samples was recorded at 570 nm (BioTek, Synergy Neo2 Multi-Mode Reader NEO2SMALPHAB; BioTek, Winooski, VT, USA). IC50 values were calculated by nonlinear regression from a semi-logarithmic plot of incubation concentration versus percentage of absorbance relative to untreated controls using GraphPad Prism software (version 9; GraphPad Software, Inc., La Jolla, CA, USA).
Data set [5] in a line: in vitro. To be noted: human, HepG2 hepatocellular carcinoma cells.
Procedure: as §1
The test system of data set [6] is recombinant AChE (hAChE, E.C. 3.1.1.7). Set-up: method as in PMID 32455879, PMID 36152726. To be noted: template alkaloid, Fig. 1; cited from earlier work.
Data set [7] in a line: Human plasma stability. In kind it is in vitro ADME. To be noted: percentage of the remaining compound after 120 min incubation, 1 μM. The procedure:
Compound 33 was incubated with human pooled plasma (Batch S00G71, Biowest, France). Briefly, compounds were dissolved in DMSO to produce stock sample solutions. 10 μL of stock solution was added to 990 μL of human plasma to initiate the reaction. […] The reactions were stopped by transferring 200 μL of incubate to 200 μL of acetonitrile containing the internal standard (IS; 67) at appropriate time points (0, 15, 30, 60 and 120 min) and centrifuged at 12 000 rpm for 5 min at 4 °C to precipitate the protein. After that, […] of supernatant was transferred to the vial and analyzed by LC-MS.
The HPLC system used in this study was Dionex Ultimate 3000 UHPLC RS consisting of an RS pump, RS column compartment, RS autosampler and diode array detector controlled by Chromeleon (version 7.2.9. build 11323) software (Thermo Fisher Scientific, Germering, Germany) connected to a Q Exactive Plus Orbitrap mass spectrometer with Thermo Xcalibur (version 3.1.66.10.) software (Thermo Fisher Scientific, Bremen, Germany). […]
For the determination of plasma stability, the percentage of the remaining compound was calculated from the ratio between peak area ratios (compound peak area/internal standard peak area) obtained at incubation times 0 and 120 min.

In data set [8] the target is hBChE (Homo sapiens, UniProt P06276). Kind of data set: Enzyme kinetic analysis of hBChE inhibition. In kind it is biochemical. The procedure: A kinetic study was performed to estimate the interaction mode of derivative 33 with hBChE. The inhibition kinetics was calculated from rate curves that were determined at several concentrations of the tested compound and substrate. The type of enzyme inhibition and appropriate kinetic parameters (Ki and Ki′) were determined using nonlinear regression analysis. Results for each type of inhibition model (competitive, non-competitive, uncompetitive and mixed) were compared by the sum-of-squares F-test. […].
The kinetic study of hBChE was conducted using the modified Ellman's method mentioned earlier,[62,74,75] with slight variations applied at the collaborating laboratory. Solutions of the corresponding ChE in phosphate buffer (PB) were prepared to achieve a final activity of 0.002 U μL^−1. The solutions of the tested compounds (8.3 μL at varying concentrations) were pre-incubated for 5 minutes in the assay medium. […] The increase in absorbance was measured for 1 minute at 412 nm using the Multimode microplate reader Synergy 2 (BioTek Inc., Winooski, VT, USA). Nunc flat-bottomed polystyrene 96-well microplates (ThermoFisher Scientific, USA) were used for these measurements. To calculate the resulting measured activity (expressed as the percentage of inhibition I), the following formula was applied: [drawing 9] where ΔAi indicates the absorbance change provided by adequate enzyme exposed to the corresponding inhibitor and ΔA0 indicates the absorbance change when a solution of PB was added instead of a solution of the inhibitor. Microsoft Excel (Redmond, WA, USA) and GraphPad Prism version 8.30 for Windows (GraphPad Software, San Diego, CA, USA) were employed for the statistical data analysis. The values of Vmax and Km for the Michaelis–Menten kinetics, as well as the values of Ki (enzyme–inhibitor dissociation constant) and Ki′ (enzyme–substrate–inhibitor dissociation constant), were calculated through nonlinear regression from the substrate velocity curves. Linear regression was used for the calculation of Lineweaver–Burk plots. […]

A short description of data set [9]: Aqueous solubility determination. To be noted: ultrapure distilled water containing 5% DMSO, 37 °C. It is filed as physicochemical. As to the method:
Briefly, 200 μl of the aqueous solution of compound 33 at the concentration of 50 μM was analyzed for the UV/vis absorption spectrum using a multimode microplate reader (TECAN Spark®, Tecan Group Ltd., Switzerland) and the wavelength of maximum absorbance was used for further testing of the corresponding compound. Subsequently, six consecutive concentrations were prepared for the compound by serial dilution of 50 μM standard solution and the absorbance of these solutions (200 μl) was measured by a microplate reader. The data were used to calculate the calibration curve by the linear regression method. Finally, the over-saturated solutions of the tested compound were prepared and incubated in an ultrasound water bath at 37 °C for 10 min. Then the solutions were centrifuged at 8000 RPM for 10 min and the UV/vis absorption of the supernatant was measured by a microplate reader. The obtained absorption value was used to calculate the maximum water solubility of the tested compound. In case the absorption value of the supernatant was higher than the calibration curve range, the supernatant was diluted with a 5% DMSO/water solution to match the calibration curve.

Data set [10] is described as follows: Human liver microsomal (HLM) stability. In kind it is in vitro ADME. The settings on record: pooled human liver microsomes.
Procedure: Briefly, compounds were dissolved in DMSO to produce stock sample solutions. […] Subsequently, 400 μL of supernatant was transferred to the vial and analyzed by LC-MS. Three types of blank samples were prepared in the same way, with a one-step exception. In the biological blank sample, 5 μL of DMSO was added instead of 5 μL stock solution, in the chemical blanks, 50 μL of water was added instead of HLM, and in the case of the control blank sample, 25 μL of water was added instead of 25 μL of RapidStart System.
A Reverse-phase C18 column Kinetex EVO (Phenomenex, Torrance, CA, USA) was used as a stationary phase, and purified water with 0.1% formic acid (mobile phase A) and LC-MS grade acetonitrile with 0.1% formic acid (mobile phase B) were used as the mobile phases. […] The column temperature was kept constant at 27 °C, the flow of the mobile phase was 0.5 mL min^−1, and the injection volume was 1 μL. […]
The peak areas of the compounds (Acmp) and internal standards (AIS) were detected in positive mode in extracted ion chromatograms from the mass spectrometer data. For the determination of microsomal stability, the Acmp/AIS was calculated as logarithmized. […]

≈ marks a conversion by molar mass, not a printed value. Where only a bound is given, the exact number is not on record here.

hBChE, sequence (P06276 29-602): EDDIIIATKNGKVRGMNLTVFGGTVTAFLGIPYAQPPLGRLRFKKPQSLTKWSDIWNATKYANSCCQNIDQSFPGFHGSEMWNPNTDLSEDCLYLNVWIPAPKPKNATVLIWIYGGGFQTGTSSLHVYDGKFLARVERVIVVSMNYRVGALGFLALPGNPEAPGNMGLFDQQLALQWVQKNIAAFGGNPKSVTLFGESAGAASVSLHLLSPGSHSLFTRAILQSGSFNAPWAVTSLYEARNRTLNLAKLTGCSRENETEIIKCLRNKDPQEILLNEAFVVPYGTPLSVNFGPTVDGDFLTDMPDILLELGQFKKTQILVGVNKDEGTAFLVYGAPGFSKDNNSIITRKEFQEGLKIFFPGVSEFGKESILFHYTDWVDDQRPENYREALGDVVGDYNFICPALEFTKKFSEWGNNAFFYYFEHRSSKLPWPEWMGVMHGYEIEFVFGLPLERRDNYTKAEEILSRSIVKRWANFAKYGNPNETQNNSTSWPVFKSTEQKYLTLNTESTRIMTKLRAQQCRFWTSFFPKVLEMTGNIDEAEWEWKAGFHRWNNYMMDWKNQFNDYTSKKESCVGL
T1 sequence (P06276 29-602): as above

`C=CCOc1ccc(CCN(CC=C)Cc2ccc(OC)c(OCc3ccccc3)c2)cc1` [Compound 1, reference compound]: the IC50 at 24 h in data set [1] was over 125 µM.

Consider `Oc1ccc(CCNCc2ccc(OCc3ccccc3)cc2)cc1` [Compound 28, 4-[2-({[4-(Benzyloxy)phenyl]methyl}amino)ethyl]phenol], for which, in [2], the IC50 is 0.171 ± 0.063 µM and the inhibition at 10 µM stood at 97 ± 0.3%. The molecule also had an IC50 at 24 h in data set [1] of 13 ± 1.2 µM. In [3], the “Pe ± SEM” value is listed as 10.0 ± 0.5 ×10^−6 cm s^−1 and the “BBB penetration estimation CNS (+/−)” value is recorded as “CNS + (CNS (+) (high BBB permeation predicted): Pe (×10^−6 cm s^−1) > 4.0)”. The molecule further displayed a Safety index in data set [4] of 500. The same molecule showed an IC50 at 24 h in [5] of 85 ± 12 µM.

For `CN(CCc1ccc(O)cc1)Cc1cc2c(cc1-c1cccc3c1N(C)CC3)OCO2` [carltonine B], in [6], the IC50 was over 100 µM.

`Oc1ccc(CCNCc2cccc(OCc3ccccc3)c2)cc1` [Compound 4, 4-[2-({[3-(Benzyloxy)phenyl]methyl}amino)ethyl]phenol]: in [2], the IC50 came to 0.193 ± 0.055 µM and the inhibition at 10 µM amounted to 96 ± 0.8%. In data set [1], this molecule displayed an IC50 at 24 h of 21 ± 2.4 µM. Besides, in data set [3], the “Pe ± SEM” value is 14.0 ± 0.4 ×10^−6 cm s^−1 and the “BBB penetration estimation CNS (+/−)” value is “CNS + (CNS (+) (high BBB permeation predicted): Pe (×10^−6 cm s^−1) > 4.0)”. Moreover, the Safety index in data set [4] was determined as 310. Besides, in data set [5], the midpoint of inhibition, the IC50 at 24 h, lay at 60 ± 4 µM.

Regarding `CCCN(CCCc1ccccc1)Cc1cccc(OCc2ccccc2)c1` [Compound 25, {[3-(Benzyloxy)phenyl]methyl}(3-phenylpropyl)propylamine], in [2], the IC50 amounted to 0.54 ± 0.03 µM and the inhibition at 10 µM is 89 ± 0.8%. Further, in data set [3], the “Pe ± SEM” value was 33.0 ± 6.8 ×10^−6 cm s^−1 and the “BBB penetration estimation CNS (+/−)” value was “CNS + (CNS (+) (high BBB permeation predicted): Pe (×10^−6 cm s^−1) > 4.0)”.

As for `CCCN(CCCc1ccccc1)Cc1ccc(OCc2ccccc2)cc1` [Compound 45, {[4-(Benzyloxy)phenyl]methyl}(3-phenylpropyl)propylamine], in data set [2], the IC50 was 0.29 ± 0.04 µM and the inhibition at 10 µM was determined as 93 ± 0.8%. In addition, in data set [3], the “Pe ± SEM” value is reported as 25.0 ± 2.9 ×10^−6 cm s^−1 and the “BBB penetration estimation CNS (+/−)” value is “CNS + (CNS (+) (high BBB permeation predicted): Pe (×10^−6 cm s^−1) > 4.0)”.

With `CC(CNCc1cccc(OCc2ccccc2)c1)c1ccccc1` (centres unmarked) [Compound 18, {[3-(Benzyloxy)phenyl]methyl}(2-phenylpropyl)amine], in data set [2], the IC50 stood at 0.188 ± 0.023 µM and the inhibition at 10 µM turned out to be 96 ± 0.3%. The molecule also returned an IC50 at 24 h in data set [1] of 36 ± 1.4 µM. For the same molecule, in data set [3], the “Pe ± SEM” value is given as 8.1 ± 0.6 ×10^−6 cm s^−1 and the “BBB penetration estimation CNS (+/−)” value is given as “CNS + (CNS (+) (high BBB permeation predicted): Pe (×10^−6 cm s^−1) > 4.0)”. In addition, the Safety index in data set [4] turned out to be 290. For the same molecule, in data set [5], the IC50 at 24 h stood at 55 ± 6.9 µM.

`CCCN(CCc1ccc(O)cc1)Cc1ccc(OCc2ccccc2)cc1` [Compound 33, 4-[2-({[4-(Benzyloxy)phenyl]methyl}(propyl)amino)ethyl]phenol] displayed a Plasma stability in [7] of 94.5%. The Ki in data set [8] (enzyme–inhibitor dissociation constant, nonlinear regression) came to 0.182 ± 0.028 µM. In data set [8] (enzyme–substrate–inhibitor dissociation constant, nonlinear regression), the “Ki′” value came out at 1.619 ± 0.315 µM. Moreover, the “type of enzyme inhibition” value in data set [8] (sum-of-squares F-test, p < 0.0002, Lineweaver–Burk plot) was “mixed inhibition pattern”. Further, in data set [2], the IC50 turned out to be 0.167 ± 0.018 µM and the inhibition at 10 µM stood at 95 ± 1.1%. In data set [1], this molecule displayed an IC50 at 24 h of 38 ± 3.5 µM. In data set [3], the “Pe ± SEM” value was 11.0 ± 2.2 ×10^−6 cm s^−1 and the “BBB penetration estimation CNS (+/−)” value is on record as “CNS + (CNS (+) (high BBB permeation predicted): Pe (×10^−6 cm s^−1) > 4.0)”. For the same molecule, the solubility at 10 min in data set [9] amounted to 267 µM (≈ 100 µg/mL). The microsomal CLint at 0.75 h, 3 µM in data set [10] (pH 7.4) is 161 µL/min/mg. Also, the half-life at 0.75 h, 3 µM in data set [10] (pH 7.4, up to 45 min incubation, read-out: HLM T½) was 8.62 min. The molecule also yielded a Safety index in data set [4] of 560. This molecule had an IC50 at 24 h in [5] of 93 ± 11 µM.

As for `COc1ccccc1CCNCc1cccc(OCc2ccccc2)c1` [Compound 5, {[3-(Benzyloxy)phenyl]methyl}[2-(2-methoxyphenyl)ethyl]amine], in data set [2], the IC50 was 0.4 ± 0.1 µM and the inhibition at 10 µM came out at 94 ± 0.4%. The same molecule registered an IC50 at 24 h in data set [1] of 16 ± 2.8 µM. In data set [3], the “Pe ± SEM” value is 6.2 ± 0.7 ×10^−6 cm s^−1 and the “BBB penetration estimation CNS (+/−)” value was “CNS + (CNS (+) (high BBB permeation predicted): Pe (×10^−6 cm s^−1) > 4.0)”. The same molecule registered a Safety index in data set [4] of 130. For the same molecule, in data set [5], the IC50 at 24 h was found to be 52 ± 10 µM.

`CC(CCc1ccccc1)NCc1ccc(OCc2ccccc2)cc1` (centres unmarked) [Compound 42, {[4-(Benzyloxy)phenyl]methyl}(4-phenylbutan-2-yl)amine]: in [2], the IC50 came to 0.5 ± 0.1 µM and the inhibition at 10 µM stood at 92 ± 0.5%. Besides, in data set [3], the “Pe ± SEM” value is listed as 22.0 ± 4.2 ×10^−6 cm s^−1 and the “BBB penetration estimation CNS (+/−)” value is reported as “CNS + (CNS (+) (high BBB permeation predicted): Pe (×10^−6 cm s^−1) > 4.0)”.
